One data set is described as follows: IV pharmacokinetics. As to conditions: rat, normal saline (* in 5% NMP, 5% Solutol HS, 90% normal saline); for AUC(0-t) / half-life / C0 / Vd: Sprague-Dawley, in vivo, iv, 2 mg/kg; for C0: read-out: C0; for Vd: read-out: Vss; for CI: intravenous 2 mg/kg. The format is in vivo, Sprague Dawley rats. The source says:
The table below summarizes the results of the IV pharmacokinetics.

Data set [1] is described as follows: oral pharmacokinetics (plasma, brain, CSF). The format is in vivo, Sprague Dawley rats. As to conditions: rat, per os 10 mg/kg; for AUC(0-t) / bioavailability / Tmax / Cmax: Sprague-Dawley, plasma, po, 10 mg/kg; for Tmax: normal saline (* in 5% NMP, 5% Solutol HS, 90% normal saline), read-out: Tmax; for Cmax: read-out: Cmax.
Method: In another experiment, Sprague Dawley rats were dosed per os using a normal saline formulation containing 10 mg/kg of the compounds identified in the table below (except for the compounds marked with an asterisk (“*”) that were delivered in 5% NMP, 5% Solutol® HS and 90% normal saline formulation). Plasma, brain, and CSF samples were analyzed at various time points over a 24 hour period.
A further data set concerns Sprague Dawley rats. Briefly: Porsolt forced swim test. As to conditions: 0.1 mg/kg. The format is in vivo, rat. The method, then:
A non-clinical in vivo pharmacology study (Porsolt assay) was performed to measure antidepressant-like effects. A negative control (0.5% sodium carboxymethyl cellulose in 0.9% sterile saline vehicle) and a positive control (fluoxetine) are shown for comparison against test compound. The study allowed for the evaluation of the effects of each compound on the Porsolt forced swim test as assessed by the rats' response (reduced floating time) during a 5-minute swimming test.
Male 2-3 month old Sprague Dawley rats were used (Harlan, Indianapolis, Ind.). Rats were housed in Lucite cages with aspen wood chip bedding, maintained on a 12:12 light:dark cycle (lights on at 5 AM), and given ad libitum access to Purina lab chow (USA) and tap water throughout the study.
The Porsolt forced swim test adapted for use in rats was performed as described by Burgdorf et al., (The long-lasting antidepressant effects of rapastinel (GLYX-13) are associated with a metaplasticity process in the medial prefrontal cortex and hippocampus. Neuroscience 308:202-211, 2015). Animals were placed in a 46 cm tall×20 cm in diameter clear glass tube filled to 30 cm with tap water (23±1° C.) for 15 min on the first day (habituation) and 5 min on the subsequent test day. Positive control fluoxetine was dosed 3 times (24 h, 5 h and 1 h) prior to testing. Animals were tested 1 h or 24 h post-dosing with the test compounds or vehicle. Animals received a 15 min habituation session 1 day before the 5 min test. A subset of compounds tested at 1 h post-dosing were retested at 1 wk post-dosing in the same sets of animals. Water was changed after every other animal. Animals were videotaped, and floating time as defined as the minimal amount of effort required to keep the animals head above water was scored offline by a blinded experimenter with high inter-rater reliability (Pearson's r>0.9).
Each compound tested at dose level shown. Significance vs. vehicle group for each experiment is marked. […] A compound marked “No” was not statistically significant from vehicle. Data was averaged for test compound and vehicle groups (N approximately 8 per group) and the percent reduction in floating for group treated with test compound relative to group treated with vehicle is shown.

The target of a further data set is T1, NMDAR2B (Homo sapiens, UniProt Q13224).
T1 construct: expressed in transfected cells; host or cells: HEK cells (membrane extract)
In words: [3H]MK-801 binding in NMDAR expressing HEK cell membranes (facilitation of NMDAR activation). The format is biochemical. As to conditions: 50 μM glutamate; for EC50: read-out: B: log EC50 (converted); for Emax: 0.25 h, read-out: A: % maximal [3H]MK-801 binding relative to 1 mM glycine. The protocol: (§1) Assays were conducted as described by Moskal et al., “GLYX-13: a monoclonal antibody-derived peptide that acts as an N-methyl-D-aspartate receptor modulator,” Neuropharmacology, 49, 1077-87, 2005. These studies were designed to determine if the test compounds act to facilitate NMDAR activation in NMDAR2A, NMDAR2B, NMDAR2C or NMDAR2D expressing HEK cell membranes as measured by increases in [^3H]MK-801 binding.
(§2) In the assay, 300 μg of NMDAR expressing HEK cell membrane extract protein was preincubated for 15 minutes at 25° C. in the presence of saturating concentrations of glutamate (50 μM) and varying concentrations of test compound (1×10^15M−1×10^−7M), or 1 mM glycine. Following the addition of 0.3 μCi of [^3H]MK-801 (22.5 Ci/mmol), reactions were again incubated for 15 minutes at 25° C. (nonequilibrium conditions). Bound and free [^3H]MK-801 were separated via rapid filtration using a Brandel apparatus.
(§3) In analyzing the data, the DPM (disintegrations per minute) of [^3H]MK-801 remaining on the filter were measured for each concentration of test compound or for 1 mM glycine. The DPM values for each concentration of a ligand (N=2) were averaged. The baseline value was determined from the best fit curve of the DPM values modeled using the GraphPad program and the log(agonist) vs. response (three parameters) algorithm was then subtracted from all points in the dataset. The % maximal [^3H]MK-801 binding was then calculated relative to that of 1 mM glycine: all baseline subtracted DPM values were divided by the average value for 1 mM glycine. The EC50 and % maximal activity were then obtained from the best fit curve of the % maximal [^3H]MK-801 binding data modelled using the GraphPad program and the log(agonist) vs. response (three parameters) algorithm.
(§4) The tables below summarize the results for the wild type NMDAR agonists NMDAR2A, NMDAR2B, NMDAR2C, and NMDAR2D, and whether the compound is not an agonist (−), is an agonist (+), or is a strong agonist (++), where column A is based on the % maximal [^3H]MK-801 binding relative to 1 mM glycine (−=0; <100%=+; and >100%=++); and column B is based on log EC50 values (0=−; ≥1×10^−9 M (e.g., −8)=+; and <1×10^−9 M (e.g., −10)=++).

The target of another data set is T2, NMDAR2A (Homo sapiens, UniProt Q12879).
T2 construct: expressed in transfected cells; host or cells: HEK cells (membrane extract)
The description is as above. The format is biochemical. As to conditions: 50 μM glutamate; for Emax: 0.25 h, read-out: A: % maximal [3H]MK-801 binding relative to 1 mM glycine; for EC50: read-out: B: log EC50 (converted). The method, then:
as §1, §2, §3, §4

T1 sequence (Q13224 27-1484, species assumed, other chains not shown): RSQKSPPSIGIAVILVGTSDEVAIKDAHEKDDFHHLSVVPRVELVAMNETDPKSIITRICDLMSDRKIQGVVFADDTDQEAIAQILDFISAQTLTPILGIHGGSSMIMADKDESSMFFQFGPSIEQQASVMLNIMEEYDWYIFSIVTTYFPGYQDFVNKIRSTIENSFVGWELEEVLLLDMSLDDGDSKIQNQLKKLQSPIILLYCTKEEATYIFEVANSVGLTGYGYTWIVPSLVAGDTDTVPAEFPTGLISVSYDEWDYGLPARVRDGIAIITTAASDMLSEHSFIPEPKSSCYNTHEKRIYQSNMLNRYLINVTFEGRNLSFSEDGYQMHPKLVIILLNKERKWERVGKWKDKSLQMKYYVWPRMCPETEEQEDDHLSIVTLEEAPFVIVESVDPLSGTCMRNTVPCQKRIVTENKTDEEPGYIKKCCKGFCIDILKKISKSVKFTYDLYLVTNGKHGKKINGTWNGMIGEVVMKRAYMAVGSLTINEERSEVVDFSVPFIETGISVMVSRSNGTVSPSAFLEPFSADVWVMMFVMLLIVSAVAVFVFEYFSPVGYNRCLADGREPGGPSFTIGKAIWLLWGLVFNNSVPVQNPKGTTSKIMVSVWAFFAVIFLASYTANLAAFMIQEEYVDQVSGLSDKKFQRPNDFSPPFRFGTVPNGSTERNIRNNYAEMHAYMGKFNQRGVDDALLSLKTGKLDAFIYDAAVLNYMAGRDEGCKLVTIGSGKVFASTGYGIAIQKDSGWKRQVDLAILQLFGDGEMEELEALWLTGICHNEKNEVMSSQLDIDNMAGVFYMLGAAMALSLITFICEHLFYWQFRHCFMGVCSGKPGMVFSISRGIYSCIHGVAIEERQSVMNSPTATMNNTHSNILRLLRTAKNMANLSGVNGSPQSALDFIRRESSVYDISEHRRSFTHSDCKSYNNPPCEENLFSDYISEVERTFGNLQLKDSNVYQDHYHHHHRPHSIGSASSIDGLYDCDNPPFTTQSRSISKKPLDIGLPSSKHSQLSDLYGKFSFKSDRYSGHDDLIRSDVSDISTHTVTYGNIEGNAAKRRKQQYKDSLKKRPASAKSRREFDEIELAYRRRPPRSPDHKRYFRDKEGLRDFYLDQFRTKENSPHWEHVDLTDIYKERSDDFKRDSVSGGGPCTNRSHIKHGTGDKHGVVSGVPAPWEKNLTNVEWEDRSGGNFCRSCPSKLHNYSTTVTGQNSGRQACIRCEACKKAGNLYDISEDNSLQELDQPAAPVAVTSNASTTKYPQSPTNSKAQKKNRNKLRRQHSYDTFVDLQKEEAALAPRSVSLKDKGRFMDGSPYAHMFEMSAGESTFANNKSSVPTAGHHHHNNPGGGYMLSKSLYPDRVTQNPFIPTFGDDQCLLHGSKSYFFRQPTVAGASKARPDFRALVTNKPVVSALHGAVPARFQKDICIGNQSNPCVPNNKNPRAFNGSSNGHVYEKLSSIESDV
T2 sequence (Q12879 23-1464, species assumed, other chains not shown): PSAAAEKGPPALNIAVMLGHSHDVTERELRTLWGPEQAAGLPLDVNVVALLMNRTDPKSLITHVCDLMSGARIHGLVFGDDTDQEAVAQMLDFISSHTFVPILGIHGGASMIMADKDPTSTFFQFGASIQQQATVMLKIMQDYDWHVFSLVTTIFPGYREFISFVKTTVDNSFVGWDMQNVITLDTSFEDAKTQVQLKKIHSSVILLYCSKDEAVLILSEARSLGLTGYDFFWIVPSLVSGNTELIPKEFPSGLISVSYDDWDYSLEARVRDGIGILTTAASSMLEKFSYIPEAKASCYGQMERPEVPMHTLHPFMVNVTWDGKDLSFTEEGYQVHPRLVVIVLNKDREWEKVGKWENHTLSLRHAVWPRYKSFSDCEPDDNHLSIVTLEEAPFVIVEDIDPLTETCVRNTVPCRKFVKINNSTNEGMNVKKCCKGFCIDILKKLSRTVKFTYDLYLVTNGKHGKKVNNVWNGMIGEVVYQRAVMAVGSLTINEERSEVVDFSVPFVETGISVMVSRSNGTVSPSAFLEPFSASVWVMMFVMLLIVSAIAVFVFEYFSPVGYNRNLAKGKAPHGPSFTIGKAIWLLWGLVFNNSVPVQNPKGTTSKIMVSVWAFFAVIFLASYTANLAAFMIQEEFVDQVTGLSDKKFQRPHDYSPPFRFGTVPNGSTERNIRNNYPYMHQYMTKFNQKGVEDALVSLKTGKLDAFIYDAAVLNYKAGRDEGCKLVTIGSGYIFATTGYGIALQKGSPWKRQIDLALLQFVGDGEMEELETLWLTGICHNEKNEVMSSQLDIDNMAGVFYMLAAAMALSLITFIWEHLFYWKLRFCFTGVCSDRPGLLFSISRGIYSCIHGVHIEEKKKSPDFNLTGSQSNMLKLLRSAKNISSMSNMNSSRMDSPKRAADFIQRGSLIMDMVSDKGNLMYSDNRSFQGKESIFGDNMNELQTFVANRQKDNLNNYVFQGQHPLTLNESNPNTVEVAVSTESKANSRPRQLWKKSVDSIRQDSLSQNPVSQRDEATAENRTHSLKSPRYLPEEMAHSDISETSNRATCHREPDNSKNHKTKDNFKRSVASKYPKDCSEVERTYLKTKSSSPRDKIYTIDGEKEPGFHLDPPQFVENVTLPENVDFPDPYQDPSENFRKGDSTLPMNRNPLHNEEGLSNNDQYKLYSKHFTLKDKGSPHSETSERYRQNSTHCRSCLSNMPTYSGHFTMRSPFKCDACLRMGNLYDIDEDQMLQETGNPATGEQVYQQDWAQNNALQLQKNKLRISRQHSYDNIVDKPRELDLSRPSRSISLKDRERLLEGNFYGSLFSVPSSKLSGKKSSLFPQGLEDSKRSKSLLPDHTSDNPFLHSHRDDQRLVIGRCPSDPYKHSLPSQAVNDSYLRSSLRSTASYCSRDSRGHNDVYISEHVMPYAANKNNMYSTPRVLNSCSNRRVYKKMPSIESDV

For `C[C@@H](O)[C@@H](C(N)=O)N1CC2(CCCCC2)C1=O` [Compound AA, (2S,3R)-3-hydroxy-2-(1-oxo-2-azaspiro[3.5]nonan-2-yl)butanamide], in the data set “IV pharmacokinetics”, the AUC(0-t) came out at 397 ng·h/mL, the half-life was 35.4 min, the C0 was 608 ng/mL and the Vd came out at 2.23 L/kg. Further, in “IV pharmacokinetics”, the CI is reported as 84.91 mL/min/kg. In addition, in data set [1], the AUC(0-t) worked out at 1540 ng·h/mL, the bioavailability came out at 78%, the Tmax turned out to be 19.8 min and the Cmax came to 1230 ng/mL. In addition, in the data set with Sprague Dawley rats (1 h post-dose), the “% reduction in float time” value is 42.0% and the Significance vs. vehicle entry is “Yes (statistically significant (p<=0.05) from vehicle at dose level shown)”. Further, in the data set on Sprague Dawley rats (24 h post-dose), the “% reduction in float time” value amounted to 48.60% and the Significance vs. vehicle result is “Yes (statistically significant (p<=0.05) from vehicle at dose level shown)”. Further, on NMDAR2B, the EC50 is under 1 nM and the Emax was under 100%. Also, at NMDAR2A, the Emax is 0%.
For `O=C1NCC12CCCCC2` [Compound AB, 2-azaspiro[3.5]nonan-1-one], in “IV pharmacokinetics”, the AUC(0-t) was found to be 2650 ng·h/mL, the half-life is 205 min, the C0 was found to be 2050 ng/mL and the Vd turned out to be 1.13 L/kg. Further, the CI in “IV pharmacokinetics” is 16.1 mL/min/kg. For the same compound, in data set [1], the AUC(0-t) worked out at 11600 ng·h/mL, the bioavailability is 88%, the Tmax is 25.2 min and the Cmax is 7690 ng/mL. For the same compound, in the data set on Sprague Dawley rats (1 h post-dose), the “% reduction in float time” value turned out to be 73.2% and the Significance vs. vehicle entry is listed as “Yes (statistically significant (p<=0.05) from vehicle at dose level shown)”. In addition, in the data set on Sprague Dawley rats (24 h post-dose), the “% reduction in float time” value is recorded as 79.90% and the Significance vs. vehicle result is “Yes (statistically significant (p<=0.05) from vehicle at dose level shown)”. At NMDAR2B, the EC50 is under 1 nM and the Emax was under 100%. On NMDAR2A, the EC50 is at least 1 nM and the Emax is under 100%.
`CC1CCC2(CC1)CN(C(CCC(N)=O)C(N)=O)C2=O` (single isomer, unassigned) [BF, 2-(7-methyl-1-oxo-2-azaspiro[3.5]nonan-2-yl)pentanediamide]: in the data set “IV pharmacokinetics”, the AUC(0-t) was 973 ng·h/mL, the half-life was 90.6 min, the C0 amounted to 2220 ng/mL and the Vd is 1.52 L/kg. Besides, the CI in “IV pharmacokinetics” is listed as 34.13 mL/min/kg. Also, in data set [1], the area under the curve AUC(0-t) was 5290 ng·h/mL, the bioavailability came to 100%, the Tmax stood at 30 min and the Cmax stood at 3020 ng/mL. For the same compound, the “CSF Cmax” value in data set [1] (CSF) worked out at 56.6 ng/mL. Further, the “Brain Cmax” value in data set [1] (brain) is 61.2 ng/mL. In addition, in the data set on Sprague Dawley rats (1 h post-dose), the “% reduction in float time” value amounted to 84.4% and the Significance vs. vehicle entry is recorded as “Yes (statistically significant (p<=0.05) from vehicle at dose level shown)”. At NMDAR2B, the “A: % maximal [3H]MK-801 binding relative to 1 mM glycine” value is reported as “+ (<100%=+)” and the EC50 was under 1 nM. In addition, at NMDAR2A, the “A: % maximal [3H]MK-801 binding relative to 1 mM glycine” value is given as “+ (<100%=+)” and the EC50 is under 1 nM.

The record behind these values is patent US10961189B2, “Spiro-lactam NMDA receptor modulators and uses thereof” (Aptinyx Inc., priority 2016, dated 2021).
